Reference: patent US5602101A, “Antithrombotic agents” (priority 1994, dated 1997)

Target: T1, tissue plasminogen activator (t-PA) (Homo sapiens, UniProt P00750)
T1 construct: purchased American Diagnostics, Greenwich, Conn
Assay: Serine protease inhibition, t-PA (chromogenic substrate), Kass
Format: biochemical
Settings: substrate H-D-Ile-Pro-Arg-p-nitroanilide
Method: (§1) The assay is carried out by mixing 50 μl buffer (0.03M Tris, 0.15M NaCl, pH 7.4), 25 μl of human thrombin solution (purified human thrombin Enzyme Research Laboratories, South Bend, Ind.) at 8 NIH units/ml and 25 μl of test compound in a solvent (50% aqueous methanol (v:v)). Then 150 μl of an aqueous solution of the chromogenic substrate (at 0.25 mg/ml) are added and the rates of hydrolysis of the substrate are measured by monitoring the reactions at 405 nm for the release of p-nitroaniline. Standard curves are constructed by plotting free thrombin concentration against hydrolysis rate. The hydrolysis rates observed with test compounds are then converted to "free thrombin" values in the respective assays by use of the standard curves. The bound thrombin (bound to test compound) is calculated by subtracting the amount of free thrombin observed in each assay from the known initial amount of thrombin used in the assay. The amount of free inhibitor in each assay is calculated by subtracting the number of moles of bound thrombin from the number of moles of added inhibitor (test compound).
(§2) Kass is calculated for a range of concentrations of test compounds and the mean value is reported in units of liter per mole.
(§3) By substantially following the procedures described above for human thrombin, and using other human blood coagulation system serine proteases, and using fibrinolytic system serine proteases, with the appropriate chromogenic substrate, identified below, selectivity of the compounds of the present invention with respect to the coagulation factor serine proteases and to the fibrinolytic serine proteases are evaluated as well as their substantial lack of interference with human plasma clot fibrinolysis.
(§4) Human factors X, Xa, IXa, XIa, and xIIa are purchased from Enzyme Research Laboratories, South Bend, Ind.; human urokinase from Leo Pharmaceuticals, Denmark; and recombinant activated Protein C (aPC) is prepared at Eli Lilly and Co. substantially according to U.S. Pat. No. 4,981,952 incorporated by reference herein in its entirety. Chromogenic substrates: N-Benzoyl-Ile-Glu-Gly-Arg-p-nitroanilide (for factor Xa); N-Cbz-D-Arg-Gly-Arg-p-nitroanilide (for factor IXa assay as the factor Xa substrate) pyroglutamyl-Pro-Arg-p-nitroanilide (for factor XIa and for aPC); H-D-Pro-Phe-Arg-p-nitroanilide (for factor XIIa); and pyroglutamyl-Gly-Arg-p-nitroanilide (for urokinase); are purchased from KabiVitrum, Stockholm, Sweden, or from Midwest Biotech, Fishers, Indiana. Bovine trypsin is purchased from Worthington Biochemicals, Freehold, N.J., and human plasma kallikrein from Kabi Vitrum, Stockholm, Sweden. N-Benzoyl-Phe-Val-Arg-p-nitroanilide, the substrate for human thrombin and for trypsin, is synthesized according to procedures described above for the compounds of the present invention, known methods of peptide coupling from commercially available reactants, or was purchased from Midwest Biotech, Fishers, Ind. Human plasmin is purchased from Boehringer Mannheim, Indianapolis, Ind.; nt-PA is purchased as single chain activity reference from American Diagnostics, Greenwich, Conn.; modified-t-PA6 (mt-PA6) is prepared at Eli Lilly and Company by procedure known in the art (See, Burck, et al., J. Biol. Chem., 265, […] (1990). Plasmin chromogenic substrate H-D-Val-Leu-Lys-p-nitroanilide and tissue plasminegen activator (t-PA) substrate H-D-Ile-Pro-Arg-p-nitroanilide are purchased from Kabi Vitrum, Stockholm, Sweden.

T1 sequence (P00750 36-562): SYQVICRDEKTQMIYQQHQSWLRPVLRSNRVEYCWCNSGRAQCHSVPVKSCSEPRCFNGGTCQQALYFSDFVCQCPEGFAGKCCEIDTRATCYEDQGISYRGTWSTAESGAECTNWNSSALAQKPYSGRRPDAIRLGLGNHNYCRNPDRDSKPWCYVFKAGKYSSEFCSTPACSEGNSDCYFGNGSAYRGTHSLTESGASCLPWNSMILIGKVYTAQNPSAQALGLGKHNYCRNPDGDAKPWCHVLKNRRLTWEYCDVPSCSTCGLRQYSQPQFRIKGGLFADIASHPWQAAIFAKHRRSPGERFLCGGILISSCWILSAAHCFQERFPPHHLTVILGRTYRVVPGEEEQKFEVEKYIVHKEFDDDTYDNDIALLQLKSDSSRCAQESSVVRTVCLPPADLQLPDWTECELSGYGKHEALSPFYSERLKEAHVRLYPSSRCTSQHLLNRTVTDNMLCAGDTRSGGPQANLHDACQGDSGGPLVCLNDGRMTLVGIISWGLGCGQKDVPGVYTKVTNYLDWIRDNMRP

| Compound | Enzyme Kass, t-Pa [L/mol × 10^6] |
| --- | --- |
| Cl.N=C(N)NCCC[C@@H](C=O)NC(=O)[C@@H]1CCCN1C(=O)[C@@H](Cc1ccccc1)NS(=O)(=O)c1ccccc1 [Example 13, PhSO2 -D-Phe-Pro-Arg-H.HCl] | 2.3 |

Target: T2, Bovine trypsin (Bos taurus, UniProt P00760)
T2 construct: Bovine trypsin is purchased from Worthington Biochemicals, Freehold, N.J; purchased Worthington Biochemicals, Freehold, N.J
T2 sequence (P00760 24-246): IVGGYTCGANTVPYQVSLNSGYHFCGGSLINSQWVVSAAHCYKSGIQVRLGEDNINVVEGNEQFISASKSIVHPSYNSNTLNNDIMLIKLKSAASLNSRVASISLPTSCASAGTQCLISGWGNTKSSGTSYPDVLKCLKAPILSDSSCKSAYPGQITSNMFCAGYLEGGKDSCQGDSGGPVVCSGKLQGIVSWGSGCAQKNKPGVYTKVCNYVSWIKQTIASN
Assay: Serine protease inhibition, trypsin (chromogenic substrate), Kass
Format: biochemical
Settings: substrate N-Benzoyl-Phe-Val-Arg-p-nitroanilide
Method: as §1, §2, §3, §4

| Compound | Enzyme Kass, Trypsin [L/mol × 10^6] |
| --- | --- |
| Cl.N=C(N)NCCC[C@@H](C=O)NC(=O)[C@@H]1CCCN1C(=O)[C@@H](Cc1ccccc1)NS(=O)(=O)c1ccccc1 [Example 13, PhSO2 -D-Phe-Pro-Arg-H.HCl] | 180 |

Target: T3, human thrombin (Homo sapiens, UniProt P00734)
T3 construct: purified human thrombin Enzyme Research Laboratories, South Bend, Ind; purchased Enzyme Research Laboratories, South Bend, Ind
Assay: Inhibition of amidase activity of thrombin (chromogenic substrate), Kass
Format: biochemical
Settings: substrate N-benzoyl-Phe-Val-Arg-p-nitroanilide, pH 7.4
Method: as §1
The Kass value is the hypothetical equilibrium constant for the reaction between thrombin and the test compound (I). [drawing 53]
as §2

| Compound | Enzyme Kass, Human Thrombin [L/mol × 10^6] |
| --- | --- |
| Cl.N=C(N)NCCC[C@@H](C=O)NC(=O)[C@@H]1CCCN1C(=O)[C@@H](Cc1ccccc1)NS(=O)(=O)c1ccccc1 [Example 13, PhSO2 -D-Phe-Pro-Arg-H.HCl] | 270 |

Target: T4, Human plasmin (Homo sapiens, UniProt P00747)
T4 construct: Human plasmin is purchased from Boehringer Mannheim, Indianapolis, Ind; purchased Boehringer Mannheim, Indianapolis, Ind
T4 sequence (P00747 581-810 limits assumed): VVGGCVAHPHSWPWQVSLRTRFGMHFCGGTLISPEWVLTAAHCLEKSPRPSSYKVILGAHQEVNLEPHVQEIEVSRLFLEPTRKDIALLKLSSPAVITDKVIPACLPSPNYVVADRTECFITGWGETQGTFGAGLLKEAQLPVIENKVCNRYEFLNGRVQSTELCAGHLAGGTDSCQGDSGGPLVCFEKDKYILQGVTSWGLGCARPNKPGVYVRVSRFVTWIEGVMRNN
T4 sequence (P00747 97-580 partner limits assumed): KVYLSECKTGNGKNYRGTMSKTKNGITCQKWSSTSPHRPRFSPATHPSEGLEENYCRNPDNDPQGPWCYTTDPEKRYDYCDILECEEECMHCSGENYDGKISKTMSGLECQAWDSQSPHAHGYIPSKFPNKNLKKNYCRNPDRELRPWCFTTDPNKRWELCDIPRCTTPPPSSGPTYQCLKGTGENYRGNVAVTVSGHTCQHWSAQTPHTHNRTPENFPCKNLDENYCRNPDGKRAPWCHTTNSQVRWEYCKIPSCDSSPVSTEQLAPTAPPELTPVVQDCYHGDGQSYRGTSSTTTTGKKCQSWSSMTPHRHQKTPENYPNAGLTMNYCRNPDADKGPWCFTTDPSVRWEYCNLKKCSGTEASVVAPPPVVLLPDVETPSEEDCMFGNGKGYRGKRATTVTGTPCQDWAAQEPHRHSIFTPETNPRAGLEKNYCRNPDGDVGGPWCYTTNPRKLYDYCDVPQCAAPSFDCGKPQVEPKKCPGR
Assay: Serine protease inhibition, plasmin (chromogenic substrate), Kass
Format: biochemical
Settings: substrate H-D-Val-Leu-Lys-p-nitroanilide
Method: as §1, §2, §3, §4

| Compound | Enzyme Kass, Plasmin [L/mol × 10^6] |
| --- | --- |
| Cl.N=C(N)NCCC[C@@H](C=O)NC(=O)[C@@H]1CCCN1C(=O)[C@@H](Cc1ccccc1)NS(=O)(=O)c1ccccc1 [Example 13, PhSO2 -D-Phe-Pro-Arg-H.HCl] | 19 |

Target: T5, factor Xa (Homo sapiens, UniProt P00742)
T5 construct: Human factors X, Xa, IXa, XIa, and xIIa are purchased from Enzyme Research Laboratories; purchased Enzyme Research Laboratories, South Bend, Ind
T5 sequence (P00742 235-488 limits assumed): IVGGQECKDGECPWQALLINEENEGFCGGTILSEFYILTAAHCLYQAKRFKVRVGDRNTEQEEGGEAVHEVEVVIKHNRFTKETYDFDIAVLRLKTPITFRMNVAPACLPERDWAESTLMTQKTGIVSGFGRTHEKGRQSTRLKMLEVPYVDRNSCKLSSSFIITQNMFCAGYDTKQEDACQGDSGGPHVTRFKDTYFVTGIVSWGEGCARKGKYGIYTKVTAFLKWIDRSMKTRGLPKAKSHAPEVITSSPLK
T5 sequence (P00742 41-179 partner limits assumed): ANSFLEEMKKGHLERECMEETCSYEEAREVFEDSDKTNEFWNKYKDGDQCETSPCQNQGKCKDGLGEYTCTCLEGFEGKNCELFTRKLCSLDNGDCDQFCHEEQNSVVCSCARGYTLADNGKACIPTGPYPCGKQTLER
Assay: Serine protease inhibition, factor Xa (chromogenic substrate), Kass
Format: biochemical
Settings: substrate N-Benzoyl-Ile-Glu-Gly-Arg-p-nitroanilide
Method: as §1, §2, §3, §4

| Compound | Enzyme Kass, Xa [L/mol × 10^6] |
| --- | --- |
| Cl.N=C(N)NCCC[C@@H](C=O)NC(=O)[C@@H]1CCCN1C(=O)[C@@H](Cc1ccccc1)NS(=O)(=O)c1ccccc1 [Example 13, PhSO2 -D-Phe-Pro-Arg-H.HCl] | 3.6 |

Test system: Human Plasma
Assay: Anticoagulation in human plasma, thrombin time (TT)
Format: biochemical
Settings: concentration required to double the thrombin time
Method: (§5) Dog plasma and rat plasma are obtained from conscious mixed-breed hounds (either sex, Hazelton-LRE, Kalamazoo, Mich., U.S.A.) or from anesthetized male Sprague-Dawley rats (Harlan Sprague-Dawley, Inc., Indianapolis, Ind., U.S.A.) by venipuncture into 3.8 percent citrate. Fibrinogen is prepared from in-date ACD human blood as the fraction I-2 according to previous procedures and specifications. Smith, Biochem. Chem. […] Human fibrinogen is also purchased as 98 percent pure/plasmin free from American Diagnostics, Greenwich, Conn. Coagulation reagents ACTIN, Thromboplastin, and Human plasma are from Baxter Healthcare Corp., Dade Division, Miami, Fla. Bovine thrombin from Parke-Davis (Ann Arbor, Mich.) is used for coagulation assays in plasma. Coagulation assay procedures are as previously described. Smith, et al., Thrombosis Research, 5, 163-174 (1988). A CoAScreener coagulation instrument (American LABor, Inc.) is used for all coagulation assay measurements. The prothrombin time (PT) is measured by adding 0.05 ml saline and 0.05 ml Thromboplastin-C reagent to 0.05 ml test plasma. The activated partial thromboplastin time (APTT) is measured by incubation of 0.05 ml test plasma with 0.05 ml Actin reagent for 120 seconds followed by 0.05 ml CaCl2 (0.02M). […] The compounds of formula I are added to human or animal plasma over a wide range of concentrations to determine prolongation effects on the APTT, PT, and TT assays. Linear extrapolations are performed to estimate the concentrations required to double the clotting time for each assay.

| Compound | 2 × Clotting time, TT [ng/mL] |
| --- | --- |
| Cl.N=C(N)NCCC[C@@H](C=O)NC(=O)[C@@H]1CCCN1C(=O)[C@@H](Cc1ccccc1)NS(=O)(=O)c1ccccc1 [Example 13, PhSO2 -D-Phe-Pro-Arg-H.HCl] | 14 |

Test system: Human Plasma
Assay: Anticoagulation in human plasma, prothrombin time (PT)
Format: biochemical
Settings: concentration required to double the PT
Method: as §5

| Compound | 2 × Clotting time, PT [ng/mL] |
| --- | --- |
| Cl.N=C(N)NCCC[C@@H](C=O)NC(=O)[C@@H]1CCCN1C(=O)[C@@H](Cc1ccccc1)NS(=O)(=O)c1ccccc1 [Example 13, PhSO2 -D-Phe-Pro-Arg-H.HCl] | 930 |

Test system: not listed separately
Assay: Index of bioavailability (plasma TT AUC, p.o. vs i.v.)
Settings: rats, adjusted for dose
Method: Male Sprague Dawley rats (350-425 gm, Harlan Sprague Dawley Inc., Indianapolis, Ind.) are anesthetized with xylazine (20 mg/kg, s.c.) and ketamine (120 mg/kg, s.c.) and maintained on a heated water blanket (37° C.). The jugular vein(s) is cannulated to allow for infusions.
Plasma thrombin time (TT) and activated partial thromboplastin time (APTT) are measured with a fibrometer. Blood is sampled from a jugular catheter and collected in syringe containing sodium citrate (3.8%, 1 part to 9 parts blood). To measure TT, rat plasma (0.1 ml) is mixed with saline (0.1 ml) and bovine thrombin (0.1 ml, 30 U/ml in TRIS buffer; Parke Davis) at 37° C. For APTT, plasma (0.1 ml) and APTT solution (0.1 ml, Organon Teknika are incubated for 5 minutes (37° C.) and CaCl2 (0.01 ml, 0,025M) is added to start coagulation. Assays are done in duplicate and averaged.
The time course of the effect of the thrombin inhibitor upon TT is determined after i.v bolus administration to anesthetized rats and after oral treatment of fasted conscious rats. Due to limitations of blood volume and the number of points required to determine the time course from time of treatment to the time when the response returns to pretreatment values, two populations of rats are used. Each sample population represents alternating sequential time points. The average TT over the time course is used to calculate area under the curve (AUC). The index of bioavailability is calculated by the formula shown below and is expressed as percent relative activity.
The area under the curve (AUC) of the plasma TT time course is determined and adjusted for the dose. This index of bioavailability is termed "% Relative Activity" and is calculated as [formula]
Compound solutions are prepared fresh daily in normal saline and are injected as a bolus or are infused starting 15 min before and continuing throughout the experimental perturbation which is 15 minutes in the arteriovenous shunt model and 60 minutes in the FeCl3 model of arterial injury and in the spontaneous thrombolysis model. Bolus injection volume is 1 ml/kg for i.v., and 5 ml/kg for p.o. and infusion volume is 3 ml/hr.

| Compound | Index of Bioavailability, % Relative Activity [%] |
| --- | --- |
| Cl.N=C(N)NCCC[C@@H](C=O)NC(=O)[C@@H]1CCCN1C(=O)[C@@H](Cc1ccccc1)NS(=O)(=O)c1ccccc1 [Example 13, PhSO2 -D-Phe-Pro-Arg-H.HCl] | 3 |

Test system: Human Plasma
Assay: Anticoagulation in human plasma, activated partial thromboplastin time (APTT)
Format: biochemical
Settings: concentration required to double the APTT
Method: as §5

| Compound | 2 × Clotting time, APTT [ng/mL] |
| --- | --- |
| Cl.N=C(N)NCCC[C@@H](C=O)NC(=O)[C@@H]1CCCN1C(=O)[C@@H](Cc1ccccc1)NS(=O)(=O)c1ccccc1 [Example 13, PhSO2 -D-Phe-Pro-Arg-H.HCl] | 450 |
